Measured values taken from patent publication US11407715B2, “Substituted indoline derivatives as dengue viral replication inhibitors” (JANSSEN PHARMACEUTICALS, INC., priority 2017, dated 2022).

Tests used:
DENV-3 strain H87 = assay: Tetravalent RT-qPCR assay, serotype 3; format: cell-based, Dengue virus; conditions: RT-qPCR serotype 3 H87, Vero cells
Experimental: (§1) The antiviral activity of the compounds of the invention was tested against DENV-1 strain TC974#666 (NCPV), DENV-2 strain 16681, DENV-3 strain H87 (NCPV) and DENV-4 strain H241 (NCPV) in a RT-qPCR assay. Therefore, Vero cells were infected with either DENV-1, or -2, or -3, or -4 in the presence or absence of test compounds. At day 3 post-infection, the cells were lysed and cell lysates were used to prepare cDNA of both a viral target (the 3′UTR of DENV; Table 2) and a cellular reference gene (β-actin, Table 2). Subsequently, a duplex real time PCR was performed on a Lightcycler480 instrument. The generated Cp value is inversely proportional to the amount of RNA expression of these targets. Inhibition of DENV replication by a test compound results in a shift of Cp's for the 3′UTR gene. On the other hand, if a test compound is toxic to the cells, a similar effect on β-actin expression will be observed. The comparative ΔΔCp method is used to calculate ECs50, which is based on the relative gene expression of the target gene (3′UTR) normalized with the cellular housekeeping gene (β-actin). In addition, CC50 values are determined based on the Cp values acquired for the housekeeping gene β-actin.
(§2) The culture medium consisted of minimal essential medium supplemented with 2% of heat-inactivated fetal calf serum, 0.04% gentamycin (50 mg/mL) and 2 mM of L-glutamine. Vero cells, obtained from ECACC, were suspended in culture medium and 75 μL/well was added in 96-well plates (10000 cells/well), which already contain the antiviral compounds. […] In addition, each plate contains wells which are assigned as virus controls (containing cells and virus in the absence of compound) and cell controls (containing cells in the absence of virus and compound). Once the cells were added in the plates, the plates were incubated in a fully humidified incubator (37° C., 5% CO2) until the next day. Dengue viruses serotype-1, 2, 3 and 4 were diluted in order to obtain a Cp of ˜22-24 in the assay. Therefore, 25 μL of virus suspension was added to all the wells containing test compound and to the wells assigned as virus control. In parallel, 25 μL of culture medium was added to the cell controls. Next, the plates were incubated for 3 days in a fully humidified incubator (37° C., 5% CO2). After 3 days, the supernatant was removed from the wells and the cells were washed twice with ice-cold PBS (˜100 μL). The cell pellets within the 96-well plates were stored at −80° C. for at least 1 day. Next, RNA was extracted using the Cells-to-CT™ lysis kit, according to the manufacturer's guideline (Life Technologies). The cell lysates can be stored at −80C or immediately used in the reverse transcription step.
(§3) In preparation of the reverse transcription step, mix A (table 3A) was prepared and 7.57 μL/well was dispensed in a 96-well plate. After addition of 5 μL of the cell lysates, a five minute denaturation step at 75° C. was performed (table 3B). Afterwards, 7.43 μL of mix B was added (table 3C) and the reverse transcription step was initiated (table 3D) to generate cDNA.
(§4) Finally, a RT-qPCR mix was prepared, mix C (table 4A), and 22.02 μL/well was dispensed in 96-well LightCycler qPCR plates to which 3 μL of cDNA was added and the qPCR was performed according to the conditions in table 4B on a LightCycler 480.
(§5) Using the LightCycler software and an in-house LIMS system, dose response curves for each compound were calculated and the half maximal effective concentration (EC50) and the half maximal cytotoxic concentration (CC50) were determined (Tables 5-8).

DENV-2 strain 16681 = assay: Tetravalent RT-qPCR assay, serotype 2; format: cell-based, Dengue virus; conditions: RT-qPCR serotype 2 16681, Vero cells
Experimental: as §1, §2, §3, §4, §5

DENV-2 16681 strain = assay: microbe, parasite or virus in culture; format: cell-based, Dengue virus; conditions: for EC50: DENV-2 16681 eGFP, Vero cells, MOI 0.5, 3 days; for SI: SI=CC50/EC50, DENV-2 antiviral assay
DENV-1 strain TC974#666 = assay: Tetravalent RT-qPCR assay, serotype 1; format: cell-based, Dengue virus; conditions: RT-qPCR serotype 1 TC974#666, Vero cells
Experimental: as §1, §2, §3, §4, §5

Vero cells = conditions: African green monkey
DENV-4 strain H241 = assay: Tetravalent RT-qPCR assay, serotype 4; format: cell-based, Dengue virus; conditions: RT-qPCR serotype 4 H241, Vero cells
Experimental: as §1, §2, §3, §4, §5

| Structure (SMILES) | EC50 (DENV-3 strain H87) | EC50 (DENV-2 strain 16681) | EC50 (DENV-2 16681 strain) | SI (DENV-2 16681 strain) | EC50 (DENV-1 strain TC974#666) | CC50 (Vero cells) | EC50 (DENV-4 strain H241) | EC50 (DENV-3 strain H87; Dengue virus, DENV3, Vero) | EC50 (DENV-2 strain 16681; Dengue virus, DENV2, Vero) | EC50 (DENV-1 strain TC974#666; Dengue virus, DENV1, Vero) | EC50 (DENV-4 strain H241; Dengue virus, DENV4, Vero) |
| --- | --- | --- | --- | --- | --- | --- | --- | --- | --- | --- | --- |
| COc1cc(NC(C(=O)N2CCc3ccc(OC(F)(F)F)cc32)c2ccc(Cl)cc2)cc(OCCC(C)C(=O)O)c1 (single isomer, unassigned) [Compound 1D] | 3.4 nM | 0.23 nM | 0.23 nM | 57700 | 0.27 nM | 12000 nM | 24 nM |  |  |  |  |
| COc1cc(NC(C(=O)N2CCc3ccc(OC(F)(F)F)cc32)c2ccc(Cl)cc2)cc(OCC(C)CC(=O)O)c1 (single isomer, unassigned) [Compound 4D] | 2.3 nM | 0.13 nM | 0.17 nM | 81200 | 0.23 nM | 13000 nM | 26 nM |  |  |  |  |
| COc1cc(NC(C(=O)N2CCc3ccc(OC(F)(F)F)cc32)c2ccc(Cl)cc2)cc(OC23CC(C(=O)O)(C2)C3)c1 (single isomer, unassigned) [Compound 9B] |  |  | 0.39 nM | 32500 |  | 12000 nM |  | 8 nM | 0.5 nM | 0.81 nM | 36 nM |
| COc1cc(NC(C(=O)N2CCc3ccc(OC(F)(F)F)cc32)c2ccc(Cl)cc2)cc(OCCC(=O)O)c1 (single isomer, unassigned) [Compound 12B] |  |  | 0.69 nM | 21500 |  | 14000 nM |  | 4.7 nM | 0.53 nM | 0.47 nM | 39 nM |
| COc1cc(CCCC(=O)O)cc(NC(C(=O)N2CCc3ccc(OC(F)(F)F)cc32)c2ccc(Cl)cc2)c1 (single isomer, unassigned) [Compound 15B] |  |  | 0.45 nM | 24900 |  | 12000 nM |  | 2.8 nM | 0.23 nM | 0.24 nM | 35 nM |
| COc1cc(NC(C(=O)N2CCc3ccc(OC(F)(F)F)cc32)c2ccc(Cl)cc2OC)cc(OCCC(C)C(=O)O)c1 (single isomer, unassigned) [Compound 17C] |  |  | 0.23 nM | 39300 |  | 12000 nM |  | 3.6 nM | 0.11 nM | 0.19 nM | 16 nM |
| COc1cc(NC(C(=O)N2CCc3ccc(OC(F)(F)F)cc32)c2ccc(Cl)cc2OC)cc(OCCC(C)C(=O)O)c1 (single isomer, unassigned) [Compound 17D] | 2.7 nM | 0.1 nM | 0.12 nM | >9720 | 0.21 nM | 14000 nM | 15 nM |  |  |  |  |
| COc1cc(NC(C(=O)N2CCc3ccc(OC(F)(F)F)cc32)c2ccc(Cl)cc2OC)cc(OCCC(C)(C)C(=O)O)c1 (single isomer, unassigned) [Compound 18B] |  |  | 0.28 nM | 62700 |  | 12000 nM |  | 4.3 nM | 0.34 nM | 0.55 nM | 33 nM |
| COc1cc(NC(C(=O)N2CCc3cc(OC)c(C(F)(F)F)cc32)c2ccc(Cl)cc2)cc(OCCC(C)(C)C(=O)O)c1 (single isomer, unassigned) [Compound 21B] |  |  | 0.32 nM | 45200 |  | 12000 nM |  | 6.5 nM | 0.16 nM | 1 nM | 48 nM |
| COc1cc(NC(C(=O)N2CCc3cc(F)c(OC(F)(F)F)cc32)c2ccc(Cl)cc2)cc(OC2CC(C(=O)O)C2)c1 (single isomer, unassigned) [Compound 27B] |  |  | 0.022 nM | >205482 |  | 13000 nM |  | 0.091 nM | 0.014 nM | 0.013 nM | 0.81 nM |
| COc1cc(NC(C(=O)N2CCc3cc(OC)c(Cl)cc32)c2ccc(Cl)cc2)cc(OC2CC(C(=O)O)C2)c1 (single isomer, unassigned) [Compound 32B] |  |  | 0.081 nM | >230623 |  | 14000 nM |  | 0.57 nM | 0.033 nM | 0.11 nM | 10 nM |
